Target: T1, P2X purinoceptor 3 (Homo sapiens, UniProt P56373)
T1 sequence (P56373 whole entry): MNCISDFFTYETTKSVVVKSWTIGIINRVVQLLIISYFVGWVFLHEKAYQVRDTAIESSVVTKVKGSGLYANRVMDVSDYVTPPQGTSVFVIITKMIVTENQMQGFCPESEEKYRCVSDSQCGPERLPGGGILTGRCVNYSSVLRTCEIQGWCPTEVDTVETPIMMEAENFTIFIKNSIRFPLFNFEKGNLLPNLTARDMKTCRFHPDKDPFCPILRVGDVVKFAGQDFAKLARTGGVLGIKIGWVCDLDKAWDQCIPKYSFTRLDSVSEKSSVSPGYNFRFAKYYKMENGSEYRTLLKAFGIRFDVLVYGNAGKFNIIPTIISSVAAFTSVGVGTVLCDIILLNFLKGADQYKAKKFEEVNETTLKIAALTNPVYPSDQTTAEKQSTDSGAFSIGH

| SMILES | Ki |
| --- | --- |
| Nc1c(S(=O)(=O)O)cc(Nc2ccc(Nc3nc(Cl)nc(Nc4ccccc4S(=O)(=O)O)n3)c(S(=O)(=O)O)c2)c2c1C(=O)c1ccccc1C2=O | 2530 nM |
| Nc1ncnc2c1ncn2[C@H]1C[C@H](O)[C@@H](COP(=O)(O)OP(=O)(O)OP(=O)(O)O)O1 | 180 nM |
| Nc1ncnc2c1ncn2[C@@H]1O[C@H](COP(=O)(O)OP(=O)(O)OP(=O)(O)O)C[C@H]1O [NSC_0] | 47.3 nM |
| Nc1ncnc2c1ncn2[C@@H]1O[C@H](COP(=O)(O)CP(=O)(O)OP(=O)(O)O)[C@@H](O)[C@H]1O [({[({[5-(6-amino-9H-purin-9-yl)-3,4-dihydroxyoxolan-2-yl]methoxy}(hydroxy)phosphoryl)methyl](hydroxy)phosphoryl}oxy)phosphonic acid] | 9 nM |
| O=c1ccn([C@@H]2O[C@H](COP(=O)(O)OP(=O)(O)OP(=O)(O)O)[C@@H](O)[C@H]2O)c(=O)[nH]1 [({[({[5-(2,4-dioxo-1,2,3,4-tetrahydropyrimidin-1-yl)-3,4-dihydroxyoxolan-2-yl]methoxy}(hydroxy)phosphoryl)oxy](hydroxy)phosphoryl}oxy)phosphonic acid] | 2610 nM |
| Nc1ncnc2c1ncn2C1OC(COP(=O)(O)OP(=O)(O)OP(=O)(O)OP(=O)(O)OP(=O)(O)OCC2OC(n3cnc4c(N)ncnc43)C(O)C2O)C(O)C1O (centres undefined) [NSC_440210] | 10.4 nM |
| CN(C(Cc1ccc(OS(=O)(=O)c2cccc3cnccc23)cc1)C(=O)N1CCN(c2ccccc2)CC1)S(=O)(=O)c1cccc2cnccc12 (centres undefined) [KN-62] | > 10000 nM |
| Nc1ncnc2c1ncn2[C@@H]1O[C@H](COP(=O)(O)CP(=O)(O)O)[C@@H](O)[C@H]1O [alpha, beta-methyleneadenosine 5 -diphosphate] | > 10000 nM |
| Nc1ncnc2c1ncn2[C@@H]1O[C@H](COP(=O)(O)OP(=O)(O)S)[C@@H](O)[C@H]1O (some centres undefined) [CAS_123848] | 297 nM |
| Nc1ncnc2c1ncn2C1OC(COP(=O)(O)OP(=O)(O)OP(=O)(O)OC2C(CO)OC(n3cnc4c(N)ncnc43)C2O)C(O)C1O (centres undefined) [CAS_3035419] | 1670 nM |
| CSc1nc(N)c2ncn([C@@H]3O[C@H](COP(=O)(O)OP(=O)(O)OP(=O)(O)O)[C@@H](O)[C@H]3O)c2n1 [ATP, 2-meS] | 8.2 nM |
| Nc1ncnc2c1ncn2C1OC(COP(=O)(O)OP(=O)(O)OP(O)(O)=S)C(O)C1O (centres undefined) [NSC_440317] | 40.3 nM |
| Nc1ncnc2c1ncn2[C@H]1CC[C@@H](COP(=O)(O)OP(=O)(O)OP(=O)(O)O)O1 [2',3'-Dideoxyadenosine Triphosphate (Ddatp)] | 406 nM |
| Nc1ncnc2c1ncn2[C@@H]1O[C@H](COP(=O)(O)OP(=O)(O)OP(=O)(O)O)[C@@H](O)[C@H]1O | 14.6 nM |
| Nc1ncnc2c1ncn2C1OC(COP(=O)(O)OP(=O)(O)OP(=O)(O)OP(=O)(O)OP(=O)(O)OP(=O)(O)OCC2OC(n3cnc4c(N)ncnc43)C(O)C2O)C(O)C1O (centres undefined) [NSC_123694] | 4.8 nM |
| Nc1ncnc2c1ncn2[C@@H]1O[C@H](CO[P@](=O)(O)O[P@](=O)(O)OC[C@H]2O[C@@H](n3cnc4c(N)ncnc43)[C@H](O)[C@@H]2O)[C@@H](O)[C@H]1O [NSC_0] | > 10000 nM |
| Nc1ncnc2c1ncn2[C@@H]1O[C@H](COP(=O)(O)OP(=O)(O)CP(=O)(O)O)[C@@H](O)[C@H]1O [adenylylmethylenediphosphonate] | 387 nM |
| Nc1ncnc2c1ncn2[C@@H]1O[C@H](COP(=O)(O)OP(=O)(O)OP(=O)(O)O)[C@@H](OC(=O)c2ccc(C(=O)c3ccccc3)cc2)[C@H]1O [NSC_0] | 7.7 nM |
| Nc1ncnc2c1ncn2[C@@H]1O[C@H](COP(=O)(O)OP(=O)(O)O)[C@@H](O)[C@H]1O [ADP] | 452 nM |
